Assays:
[1] = biological target: Cathepsin L (Homo sapiens, UniProt P07711); assay: Cathepsin IC50, Cathepsin L; type: biochemical
[2] = test system: UUO injured kidneys; assay: UUO model of tubulointerstitial fibrosis; type: in vivo, C57BL/6 mice; conditions: 10 days
Text: (a) Bleomycin-induced lung fibrosis model, which is a leading preclinical in vivo model of Idiopathic Pulmonary Fibrosis. [Kobayashi et al, 2016, J Immunol, 197(2):504-516] (b) Diet-induced model of NAFLD and glucose homeostasis. [Nishida et al, 2013, Lab Invest; February; 93(2):230-41] (c) MPTP Model of Parkinson's Disease, which is a commonly used paradigm for looking at neurodegeneration in the dopaminergic system of the brain which is triggered by chemically-induced mitochondrial dysfunction. [Karuppagouner et al, 2014, Sci Rep. 2014 May 2; 4:4874] (d) Ndufs4KO Leigh syndrome model. [Kruse et al, 2008, Cell Metab. April; 7(4):312-20] (e) Aged rodent model: effects on hippocampal, cognitive and motor function. [Kobilo et al, 2014, Learn Mem. January 17; 21(2):119-26; Creed et al, 2019, Neuroscience. June 15; 409:169-179; Van Skike et al, 2020, Aging Cell. 19; e13057]. Example 1 was assessed in this model. (f) UUO causes renal injury characterised by tubular cell injury, interstitial inflammation and fibrosis. It serves as a model of irreversible post-renal acute kidney injury (AKI). […]
Example 1 was assessed in the UUO model to determine the ability of the compound to attenuate progressive tubulointerstitial fibrosis and chronic kidney disease (CKD). […]

[3] = biological target: T1, USP30 (Homo sapiens, UniProt Q70CQ3); assay: USP30 endogenous cellular target engagement western blot assay (Cell TE WB); type: cell-based; conditions: Hela cells stably overexpressing YFP-Parkin, 1 hour
T1 construct: USP30 endogenous cellular target engagement western blot (WB) assay; endogenous in cells; host or cells: HeLa cells stably overexpressing YFP-Parkin
T1 sequence (Q70CQ3 whole entry): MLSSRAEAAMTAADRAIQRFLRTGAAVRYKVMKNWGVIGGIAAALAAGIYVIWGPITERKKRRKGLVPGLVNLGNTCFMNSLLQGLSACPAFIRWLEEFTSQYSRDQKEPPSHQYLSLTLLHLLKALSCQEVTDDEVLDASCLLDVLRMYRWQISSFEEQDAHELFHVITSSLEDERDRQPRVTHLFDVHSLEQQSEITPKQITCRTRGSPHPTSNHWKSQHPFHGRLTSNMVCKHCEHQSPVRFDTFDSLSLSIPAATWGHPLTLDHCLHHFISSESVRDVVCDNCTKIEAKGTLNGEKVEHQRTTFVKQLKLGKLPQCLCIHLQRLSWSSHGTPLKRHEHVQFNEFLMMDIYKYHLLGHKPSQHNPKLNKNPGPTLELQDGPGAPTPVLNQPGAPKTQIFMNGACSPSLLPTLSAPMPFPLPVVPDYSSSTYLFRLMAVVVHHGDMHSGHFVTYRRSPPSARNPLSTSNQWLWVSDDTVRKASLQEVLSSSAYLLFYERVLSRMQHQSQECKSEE
Method: Hela cells stably overexpressing YFP-Parkin were seeded into 6 well dishes. Once adhered, cells were treated with appropriate concentrations of test compounds or vehicle control for 1 hour at 37° C., 5% CO2. Whole cell lysates were prepared by scraping the cells into cold PBS, centrifuging and lysing in lysis buffer (50 mM Tris-base, pH 7.5, 50 mM NaCl, 1% NP-40/Igepal CA-630, 2 mM MgCl2, 10% Glycerol, 5 mM beta-mercaptoethanol, cOmplete mini tablets EDTA free (Roche), PhosStop tablets (Roche)) for 10 mins. The equivalent of 20 μg of protein from the cleared cell lysate was incubated with a final conc of 2.5 μM HA-Ahx-Ahx-Ub-VME probe at room temperature. The reaction was stopped by addition of 5×SDS sample loading buffer and proteins separated by SDS PAGE and western blotting. USP30 was detected using an anti-USP30 Sheep S746D antibody (MRC PPU Reagents and Services) and a rabbit anti sheep secondary IgG (H+L) horseradish peroxidase conjugated (Thermo #31480) and visualised using ECL reagent (GE #RPN2109) on a GE LAS4000 imager. Target engagement was measured by quantitation of the bands corresponding to USP30 and USP30 bound to the Ub-VME probe and expression of this proportion compared to vehicle treated control.
MDR1-MDCK (Madin-Darby Canine Kidney cell monolayer) (in vitro) flux assay. Cell TE WB: USP30 endogenous cellular target engagement western blot (WB) assay. […]

Chain of Cathepsin L (P07711 114-333, species assumed): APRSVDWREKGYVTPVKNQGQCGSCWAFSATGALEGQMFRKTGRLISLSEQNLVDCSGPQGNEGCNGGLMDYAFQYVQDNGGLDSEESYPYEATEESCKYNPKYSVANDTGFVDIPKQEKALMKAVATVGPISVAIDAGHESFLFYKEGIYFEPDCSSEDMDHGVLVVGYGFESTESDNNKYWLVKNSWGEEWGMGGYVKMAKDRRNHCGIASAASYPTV

SMILES	IC50 [1] [µM]	α-SMA levels in UUO injured kidneys v vehicle treated controls ([2]; 15, 5 and 1.5 mg/kg oral BID)	collagen deposition (picrosirius red staining) in ligated kidneys ([2]; 15, 5 and 1.5 mg/kg p.o. BID)	EC50 [3] [µM]
COC[C@@H]1C[C@@H](NC(=O)c2ncc(-c3cccc(OC(F)(F)F)c3)o2)CN1C#N [Example 1, N-((3R,5S)-1-Cyano-5-(methoxymethyl)pyrrolidin-3-yl)-5-(3-(trifluoromethoxy)phenyl)oxazole-2-carboxamide]	17.7	statistical reduction in α-SMA levels	statistically reduced collagen deposition	
C[C@@H]1C[C@@H](NC(=O)c2ncc(-c3cccc(OC(F)(F)F)c3)o2)CN1C#N [Example 2, N-((3R,5R)-1-Cyano-5-methylpyrrolidin-3-yl)-5-(3-(trifluoromethoxy)phenyl)oxazole-2-carboxamide]				0.007
